Here are results for 1 compound from article PMC9918900, “New Succinimide–Thiazolidinedione Hybrids as Multitarget Antidiabetic Agents: Design, Synthesis, Bioevaluation, and Molecular Modelling Studies” (Molecules, 2023).

In general, IC50 refers to the midpoint of a concentration-inhibition curve. The inhibition is the percentage by which the read-out fell short of the control.

One data set addresses α-glucosidase. Kind of data set: in vitro α-glucosidase inhibitory activity. It is filed as biochemical, Homo sapiens. On the procedure: The inhibitory analyses for α-glucosidase were carried out in accordance with the protocols reported in the literature; the inhibitory activities of the synthesized hybrids were calculated utilizing screening assay tools.
The next data set has as its target T1, PTP1B (Homo sapiens, UniProt P18031).
T1 sequence (P18031 1-435): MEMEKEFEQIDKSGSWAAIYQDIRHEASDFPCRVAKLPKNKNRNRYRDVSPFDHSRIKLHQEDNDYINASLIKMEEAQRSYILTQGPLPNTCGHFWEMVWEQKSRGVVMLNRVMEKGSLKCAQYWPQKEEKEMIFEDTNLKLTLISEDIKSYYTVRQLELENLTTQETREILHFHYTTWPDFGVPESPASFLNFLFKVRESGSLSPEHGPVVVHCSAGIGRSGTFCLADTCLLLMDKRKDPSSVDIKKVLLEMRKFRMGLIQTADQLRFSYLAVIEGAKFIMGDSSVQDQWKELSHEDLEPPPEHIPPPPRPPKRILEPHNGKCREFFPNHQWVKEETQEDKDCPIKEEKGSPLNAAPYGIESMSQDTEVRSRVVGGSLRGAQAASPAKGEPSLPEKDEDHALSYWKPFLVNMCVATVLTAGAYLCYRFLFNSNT
Nature of the data set: PTP1B assay (pNPP substrate). Type of data set: biochemical. On the procedure: The aforementioned newly synthesize succinimides and thiazolidinedione hybrids were tested against the PTP1B enzyme to determine their ability to inhibit the negative regulation of insulin as well as leptin signaling. The PTP1B test was performed with a small modification to the method described in the publications. The enzyme efficiency was evaluated using […] (pNPP) as a substrate. For the buffer solution, 0.5 millimolar (mM) of ethylene diamine tetraacetic acid (EDTA), 1 mM of mercaptoethanol, 0.55 mM of dithiothreitol (DTT), and 12.49 mM of TRIS hydrochloride (ph = 7.4) were used. The experiment was carried out by mixing 10.0 μL of the test compound solutions with 20.0 μL of the enzyme (1 μg/mL), subsequently injecting 40.0 μL of 4.0 mM 4-nitrophenyl dihydrogen phosphate in 130.5 μL of the prescribed buffer in a microplate well at 37 °C for 10 min. pNP was formed during the enzymatic process, which was monitored for 30 min. The IC50 values were derived using a non-linear regression analysis of the fraction of the product generated vs. the log of the inhibitory concentration.

The target of a further data set is T2, human DPP-4 enzyme (Homo sapiens, UniProt P27487).
T2 construct: purchased
Kind of data set: DPP-4 activity bioassay. It is filed as biochemical. As for the experimental part:
All succinimides and thiazolidinedione hybrids were tested for DPP-4 inhibitory effects on a human DPP-4 enzyme using the methodology published before. The DPP-4 kit was used to measure the inhibition. L-thiazolidine (P32/98) was included as a reference. The hybrids and DPP-4 enzyme were both adulterated 1/50 in the assay buffer (PH = 7.4, 25 mM Tris). Following that, a microplate well was filled with 5 μL of assay buffer, 3 μL of enzyme solution, and 2 μL of adequately diluted test chemical solutions. After a 12-min incubation period at 37.5 °C, a diluted substrate solution of 25 μL was added into the solution. A multi-mode reader was used to assess the fluorescence. […] PRISM5 was used to calculate the IC50 values and compare the inhibition ratio to the control without the inhibitor.

A further data set relates to rats. Nature of the data set: acute oral toxicity study, limit test (OECD up and down procedure). It is filed as in vivo. As for the experimental part: For the acute toxicity study, a limit test on the laboratory animals at 2000 mg/kg body weight was selected and the up and down procedure (UDP) was followed as per the guidelines of the Organization for Economic Cooperation and Development (OECD). The purpose was to evaluate the dose necessary to perform various pharmacological activities.
Healthy young adult male rats of about 8 to 12 weeks old were selected for dosing.
The rats were randomly selected, marked for an individual identification, and retained in their cages for at least 5 days before dosing to acclimatize to the laboratory conditions. Prior to dosing, the animals were fasted and they were refrained from food, not water, for 16–18 h.
After the fasting period, the weight of each animal was determined and according to the body weight of the animals, the dose at 2000 mg/kg body weight was calculated for each animal. A unique dose of the studied compound 10d was administered to the animals for the UDP study by the oral route using an intragastric cannula 16 G, and it was planned to dose the five animals on the same day. […] The onset time, toxic reactions, and length of the recovery period determined the duration of the observation and when considered necessary, may be extended. […] Individual observations were recorded and maintained systematically for each animal. […]

T2 sequence (P27487 whole entry): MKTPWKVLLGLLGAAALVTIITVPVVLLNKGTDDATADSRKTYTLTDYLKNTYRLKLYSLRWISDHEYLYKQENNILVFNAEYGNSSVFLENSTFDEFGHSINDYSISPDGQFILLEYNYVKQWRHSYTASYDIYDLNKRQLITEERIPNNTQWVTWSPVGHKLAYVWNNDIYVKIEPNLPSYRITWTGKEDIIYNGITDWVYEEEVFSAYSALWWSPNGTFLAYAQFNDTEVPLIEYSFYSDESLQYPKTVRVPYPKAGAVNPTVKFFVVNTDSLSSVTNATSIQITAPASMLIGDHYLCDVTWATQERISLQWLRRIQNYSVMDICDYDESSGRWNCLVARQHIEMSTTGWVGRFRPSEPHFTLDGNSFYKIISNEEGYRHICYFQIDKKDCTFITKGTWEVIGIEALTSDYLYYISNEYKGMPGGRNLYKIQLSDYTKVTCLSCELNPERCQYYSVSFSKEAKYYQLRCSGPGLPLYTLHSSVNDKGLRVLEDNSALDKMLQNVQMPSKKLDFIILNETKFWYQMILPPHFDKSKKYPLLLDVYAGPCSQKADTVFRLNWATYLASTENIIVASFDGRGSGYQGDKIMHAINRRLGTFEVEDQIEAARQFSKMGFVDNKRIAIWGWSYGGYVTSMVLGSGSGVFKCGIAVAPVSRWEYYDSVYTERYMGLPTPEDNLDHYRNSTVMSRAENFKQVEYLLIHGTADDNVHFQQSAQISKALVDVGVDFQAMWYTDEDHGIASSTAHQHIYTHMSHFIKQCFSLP

In the case of `CC(C)(C=C1SC(=O)N(C(=O)CN2CCOCC2)C1=O)C1CC(=O)N(Cc2ccccc2)C1=O` (centres unmarked) [10d], the values for the IC50 against α-glucosidase, against PTP1B and on human DPP-4 enzyme (read-out: IC50 DPP4) were 10 µM, 3.64 µM and 4.22 µM, respectively. Moreover, the “% α-Glucosidase Inhibition” value is listed as 67.10 ± 0.95% in the data set with α-glucosidase (31.25 µM); 72.26 ± 0.77% in the data set on α-glucosidase (62.5 µM); 77.93 ± 0.90% in the data set with α-glucosidase (125 µM); 83.83 ± 0.66% in the data set on α-glucosidase (250 µM); 88.43 ± 1.26% in the data set with α-glucosidase (500 µM). The inhibition at 31.25 µM against PTP1B (31.25 µM) is 71.8%; on human DPP-4 enzyme (31.25 µM, read-out: DPP4 (inhibition) (converted)), 71.4%. Besides, the inhibition at 62.5 µM on PTP1B (62.5 µM) is 74.7%; at human DPP-4 enzyme (62.5 µM, read-out: DPP4 (inhibition) (converted)), 76.5%. For the same compound, the inhibition at 125 µM against PTP1B (125 µM) was 79%; on human DPP-4 enzyme (125 µM, read-out: DPP4 (inhibition) (converted)) it was 81.4%. For the same compound, the inhibition at 250 µM was 84.5% against PTP1B (250 µM) and 85.3% at human DPP-4 enzyme (250 µM, read-out: DPP4 (inhibition) (converted)). Further, the inhibition at 500 µM at PTP1B (500 µM) was found to be 89.88 ± 0.89%; on human DPP-4 enzyme (500 µM, read-out: DPP4 (inhibition)), 91.4 ± 1.49%. For the same compound, in the data set on rats (limit dose 2000 mg/kg body weight, observed 14 days), the “acute toxicity observation (behavior, mortality)” value is “no abnormal changes in their behavior and no mortality”. The “LD50 class as per OECD guidelines” value with rats (maximum dose 2000 mg/kg) was “class IV”.
